Laboratory results taken from patent publication US20130039928A1, “COMPOSITIONS AND METHODS FOR REVERSING CORTICOSTEROID RESISTANCE OR TREATING RESPIRATORY INFECTIONS” (priority 2010, published 2013).
Like-named read-outs stand apart in the source and are kept apart here.

System: Pseudomonas aeruginosa
Conditions: 0.5 mg/mouse/day nebulizer, three days, 4 hours after PA, compared to vehicle
Description: The efficacy of sulforaphane to improve bacterial phagocytosis and clearance in the lungs of mice exposed to cigarette smoke was determined. After 6 months or 1 week of CS or air exposure, mice were treated with sulforaphane and or vehicle (0.5 mg/mouse/day) for three consecutive days using an Aeroneb® nebulizer (Aerogen, Inc., Galway, Ireland). Mice were challenged intranasally with Pseudomonas aeruginosa 24 hours after the last dose of sulforaphane, and bacterial burden in BALF was analyzed 4 hours later.
C57BL/6J mice were housed under controlled conditions for temperature and humidity, using a 12-hour light/dark cycle. At 8 weeks of age, mice were exposed to CS for (2.5 h/day for 5 days/week) for 1 week or 6 months using a machine that produces cigarette smoke (TE-10, Teague Enterprises) and reference cigarettes (2R4F) with a total suspended particle concentration of 250 mg/m^3 as previously described (T. E. Sussan et al., Proc Natl Acad Sci USA, (Dec. 22, 2008)). Following exposure to CS, mice were inoculated with PA or NTHI at a dose of 10^3 CFU in 50 μl of PBS intranasally. […]
BAL fluid analysis and cell counts with differential staining were carried out as described previously (T. Rangasamy et al., J Clin Invest 114, 1248 (November, 2004)). […] After 24 h, the number of CFU was counted.

## C[S+]([O-])CCCCN=C=S (centres unmarked) [sulforaphane]
1 week CS
  bacterial burden in lungs: significantly reduced bacterial burden
6 months CS
  bacterial burden in lungs: significantly reduced bacterial burden
